The source of these data is ChEMBL document CHEMBL1129778, “Design and synthesis of bisubstrate analogues for 3-hydroxy-3-methyl-glutaryl coenzyme a reductase” (Bioorg Med Chem Lett, 1996).

Activity calls are given as the source filed them. The calls are words filed in the database; no cut-off is given here.

The target in the experiment is T1, 3-hydroxy-3-methylglutaryl-coenzyme A reductase (Rattus norvegicus) (UniProt P51639).
T1 sequence (whole entry): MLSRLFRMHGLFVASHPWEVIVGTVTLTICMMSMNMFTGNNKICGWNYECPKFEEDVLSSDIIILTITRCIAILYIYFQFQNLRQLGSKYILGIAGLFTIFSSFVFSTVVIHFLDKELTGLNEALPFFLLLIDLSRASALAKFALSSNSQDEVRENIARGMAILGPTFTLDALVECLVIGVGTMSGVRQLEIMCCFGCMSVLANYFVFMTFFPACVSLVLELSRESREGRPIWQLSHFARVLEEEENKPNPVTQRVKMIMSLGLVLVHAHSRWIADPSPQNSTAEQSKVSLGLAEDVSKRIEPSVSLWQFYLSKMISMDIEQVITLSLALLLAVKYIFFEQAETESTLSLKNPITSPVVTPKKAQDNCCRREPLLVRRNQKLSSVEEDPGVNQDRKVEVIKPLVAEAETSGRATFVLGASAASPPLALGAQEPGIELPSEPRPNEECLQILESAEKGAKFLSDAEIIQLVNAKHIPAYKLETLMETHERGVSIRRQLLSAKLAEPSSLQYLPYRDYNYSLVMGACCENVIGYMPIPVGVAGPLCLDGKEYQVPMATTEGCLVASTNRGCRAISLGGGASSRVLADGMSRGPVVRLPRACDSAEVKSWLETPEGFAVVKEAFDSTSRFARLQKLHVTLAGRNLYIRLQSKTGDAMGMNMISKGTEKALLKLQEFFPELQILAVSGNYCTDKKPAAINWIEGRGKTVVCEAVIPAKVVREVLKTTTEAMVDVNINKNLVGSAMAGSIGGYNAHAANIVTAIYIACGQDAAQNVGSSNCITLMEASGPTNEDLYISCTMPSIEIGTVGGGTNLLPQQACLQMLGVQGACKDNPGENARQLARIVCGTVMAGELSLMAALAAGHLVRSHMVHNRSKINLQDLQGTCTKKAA
As to the kind of experiment: Biological activity against rat liver 3-hydroxy-3-methyl glutaryl coenzyme A reductase (HMGR) at a concentration of 10E-4 M; No inhibition. The experiment is classed as tissue-based.

`COC(=O)C[C@H](O)C[C@@H](O)Cc1ccncc1C(N)=O`: the result was inactive.
Take `COC(=O)C[C@H](O)C[C@H](O)Cc1ccncc1C(N)=O`: the outcome was inactive.
